Results as given in patent US11235976B2, “Nanocarbon-iron composite system as well as composition, preparation method and use thereof” (Chongqing Lummy Pharmaceutical Co., LTD, priority 2017, dated 2022).

Columns and labels:
Test in all cases: Cell experiment, cell survival rate
Type in all cases: cell-based
Details in all cases: 48 h
A549 lung cancer cells = test system: A549 lung cancer cells
Procedure: (§1) Cells growing in a log phase are collected, the concentration of the cell suspension is adjusted, 100 μL of cell suspension is added to each well and the cells are plated (edge wells are filled with sterile PBS) at a density of 1×10^3-10^4 cells/well. The cells are incubated for 24 hours at 37° C. under the condition of 5% CO2, a nanocarbon-iron solution having a concentration gradient (nanocarbon content: 125, 62.5, 15.63 and 3.91 μg/mL; and ferric ion content: 13.65, 6.83, 1.71 and 0.43 μg/mL) is added, and three sub-wells are set. Then the cells are incubated for 48 hours at 37° C. under the condition of 5% CO2. 10 μL of CCK8 solution is added to each well and then the cells are continuously incubated for 2 hours. The absorbance of each well is measured at OD=450 nm with the microplate reader. In addition, a negative control group, nanocarbon control groups having the same concentration and iron preparation control groups having the same concentration are set.
as §1, with “and 1” for “100”, “of a 6-well plate” for “and the cells are plated (edge wells are filled with sterile PBS)”, “3×10^4” for “1×10^3-10^4”, “1.71,” for “1.71 and”, “The” for “10 μL of CCK8 solution is added to each well and then the”, “trypsinized and counted.” for “continuously incubated for 2 hours. The absorbance of each well is measured at OD=450 nm with the microplate reader.”

[1] = test system: HCT116 colon cancer cells
Procedure: as §1
as §1, with “and 1” for “100”, “of a 6-well plate” for “and the cells are plated (edge wells are filled with sterile PBS)”, “3×10^4” for “1×10^3-10^4”, “1.71,” for “1.71 and”, “The” for “10 μL of CCK8 solution is added to each well and then the”, “trypsinized and counted.” for “continuously incubated for 2 hours. The absorbance of each well is measured at OD=450 nm with the microplate reader.”

[2] = test system: Hela cervical cancer cells
Procedure: as §1
as §1, with “and 1” for “100”, “of a 6-well plate” for “and the cells are plated (edge wells are filled with sterile PBS)”, “3×10^4” for “1×10^3-10^4”, “1.71,” for “1.71 and”, “The” for “10 μL of CCK8 solution is added to each well and then the”, “trypsinized and counted.” for “continuously incubated for 2 hours. The absorbance of each well is measured at OD=450 nm with the microplate reader.”

[3] = test system: MDA-MB-231 breast cancer cells
Procedure: as §1
as §1, with “and 1” for “100”, “of a 6-well plate” for “and the cells are plated (edge wells are filled with sterile PBS)”, “3×10^4” for “1×10^3-10^4”, “1.71,” for “1.71 and”, “The” for “10 μL of CCK8 solution is added to each well and then the”, “trypsinized and counted.” for “continuously incubated for 2 hours. The absorbance of each well is measured at OD=450 nm with the microplate reader.”

[4] = test system: SGC-7901 stomach cancer cells
Procedure: as §1
as §1, with “and 1” for “100”, “of a 6-well plate” for “and the cells are plated (edge wells are filled with sterile PBS)”, “3×10^4” for “1×10^3-10^4”, “1.71,” for “1.71 and”, “The” for “10 μL of CCK8 solution is added to each well and then the”, “trypsinized and counted.” for “continuously incubated for 2 hours. The absorbance of each well is measured at OD=450 nm with the microplate reader.”

[5] = test system: SKOV3 ovarian cancer cells
Procedure: as §1
as §1, with “and 1” for “100”, “of a 6-well plate” for “and the cells are plated (edge wells are filled with sterile PBS)”, “3×10^4” for “1×10^3-10^4”, “1.71,” for “1.71 and”, “The” for “10 μL of CCK8 solution is added to each well and then the”, “trypsinized and counted.” for “continuously incubated for 2 hours. The absorbance of each well is measured at OD=450 nm with the microplate reader.”

[6] = iron preparation alone 0.43 μg/mL
[7] = iron preparation alone 1.71 μg/mL
[8] = iron preparation alone 6.83 μg/mL
[9] = iron preparation alone 13.65 μg/mL

## ammonium ferric citrate
A549 lung cancer cells; [6]
  Cell Survival Rate: 97.21%
A549 lung cancer cells; [7]
  Cell Survival Rate: 99.64%
A549 lung cancer cells; [8]
  Cell Survival Rate: 95.76%
A549 lung cancer cells; [9]
  Cell Survival Rate: 94.67%
[1]; [6]
  Cell Survival Rate: 97.31%
[1]; [7]
  Cell Survival Rate: 98.12%
[1]; [8]
  Cell Survival Rate: 94.03%
[1]; [9]
  Cell Survival Rate: 95.31%
[2]; [6]
  Cell Survival Rate: 100%
[2]; [7]
  Cell Survival Rate: 99.34%
[2]; [8]
  Cell Survival Rate: 97.46%
[2]; [9]
  Cell Survival Rate: 93.67%
[3]; [6]
  Cell Survival Rate: 100%
[3]; [7]
  Cell Survival Rate: 100%
[3]; [8]
  Cell Survival Rate: 97.28%
[3]; [9]
  Cell Survival Rate: 95.12%
[4]; [6]
  Cell Survival Rate: 97.85%
[4]; [7]
  Cell Survival Rate: 95.31%
[4]; [8]
  Cell Survival Rate: 96.41%
[4]; [9]
  Cell Survival Rate: 100%
[5]; [6]
  Cell Survival Rate: 95.67%
[5]; [7]
  Cell Survival Rate: 99.46%
[5]; [8]
  Cell Survival Rate: 94.36%
